The text below walks through data of paper PMC11487561 (ACS Chemical Neuroscience, 2024).

Molecules are shown by their SMILES. Where two headings read alike, the source gives them in different places. Some results are limits rather than exact numbers.

Data set [1] addresses T1, human M4 (hM4) (Homo sapiens, UniProt P08173).
T1 construct: expressed in transfected cells
T1 sequence (P08173 1-479): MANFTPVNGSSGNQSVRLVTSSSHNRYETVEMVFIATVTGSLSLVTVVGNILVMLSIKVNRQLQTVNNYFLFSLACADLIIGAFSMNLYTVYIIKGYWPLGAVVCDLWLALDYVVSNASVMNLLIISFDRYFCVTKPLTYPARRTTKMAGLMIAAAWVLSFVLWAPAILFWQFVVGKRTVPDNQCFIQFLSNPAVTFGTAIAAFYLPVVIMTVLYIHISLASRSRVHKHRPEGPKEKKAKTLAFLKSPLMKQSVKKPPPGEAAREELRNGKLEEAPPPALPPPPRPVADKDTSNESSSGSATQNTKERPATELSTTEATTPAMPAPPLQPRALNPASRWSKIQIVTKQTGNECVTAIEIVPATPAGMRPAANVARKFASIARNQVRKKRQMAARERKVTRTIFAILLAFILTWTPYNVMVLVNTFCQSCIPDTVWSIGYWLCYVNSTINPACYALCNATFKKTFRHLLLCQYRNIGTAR
Kind of data set: Calcium mobilization assay, hM4/Gqi5-CHO cells, EC20 acetylcholine (PAM). Type of data set: cell-based. Particulars: for fold loss in hM4 potency vs comparator: 14e vs 14g, 14c vs VU6007215; for Emax: read-out: hM4 %ACh Max; for fold decrease in hM4 activity with R1 larger than methyl: relative to the R1 = methyl analogue.

Data set [2] in a line: Binding in brain homogenate from rat (equilibrium dialysis). Type of data set: in vitro ADME. As to conditions: rat, brain homogenate, in %; read-out: fu,brain (rat brain homogenate). The procedure:
Binding in brain homogenate from rat.
Determination of fraction unbound (f u) in brain homogenate from rat was conducted using the same methodology and procedure than described for plasma protein binding assay with the following modifications: 1) a final compound concentration of 1 μM was used, 2) naïve rat brains were homogenized in DPBS (1:3 composition of brain: DPBS, w/w) using a Mini-Bead Beater™ machine in order to obtain […]
The diluted fraction unbound (f u2) in brain was calculated as (analyte to IS MS peak area ratio from Trans-buffer side) / (analyte to IS MS peak area ratio from Cis-brain homogenate side). Undiluted fraction unbound for the brain was calculated using the following equation: […]
Mean values for each species were calculated from 3 replicates. […]

[3] abbreviates: calcium mobilization, hM4/Gqi5-CHO cells, EC20 acetylcholine.
Setting [4] is: calcium mobilization, hM4/Gqi5-CHO cells, EC20 acetylcholine, read-out: hM4 EC50.
Setting [5] is: calcium mobilization, hM4/Gqi5-CHO cells, EC20 acetylcholine, read-out: hM4 pEC50 (converted).

Take `Cc1nc(C)c2c(n1)sc1c(N3CC4(COC4)C3)ncnc12` [14c]: the “fold loss in hM4 potency vs comparator” value in data set [1] is 11 fold. Also, in data set [1] (setting [3]), the “hM4 pEC50” value was 5.80 and the Emax worked out at 76%. In data set [1] (setting [4]), the EC50 came out at 1.6 µM.

In the case of `Cc1nc(C)c2c(n1)sc1c(N3CCN(C)CC3)nccc12` [22b], the Emax in data set [1] (setting [3]) was determined as 52%. Besides, in data set [1] (setting [4]), the EC50 is more than 10 µM.

For the compound `Cc1nc(C)c2c(n1)sc1c(CC(C)(C)C)nccc12` [23b], in data set [1] (setting [3]), the Emax was found to be 86%. Besides, the EC50 in data set [1] (setting [4]) is 0.24 µM.

On to `Cc1nc(C)c2c(n1)sc1c(C3CC3)nccc12` [23a], for which the Emax in data set [1] (setting [3]) is 109%. For the same compound, the EC50 in data set [1] (setting [4]) came out at 0.57 µM.

For the compound `Cc1nc(C2CC2)nc2sc3c(N4CCCC4)nccc3c12` [22q], in data set [1] (setting [3]), the “hM4 pEC50” value is on record as 6.00 and the Emax amounted to 65%. Moreover, the EC50 in data set [1] (setting [4]) amounted to 1 µM. Moreover, the “fold decrease in hM4 activity with R1 larger than methyl” value (“fold decrease in hM4 activity” for short) in data set [1] is more than 13 fold.

On to `Cc1nc(C)c2c(n1)sc1c(N3CCCC3)ncc(Cl)c12` [26b], for which, in data set [1] (setting [3]), the Emax amounted to 61%. Moreover, in data set [1] (setting [4]), the EC50 amounted to 0.69 µM.

For `Cc1nc(C)c2c(n1)sc1c(N3CCCC3)ncnc12` [14g], in data set [1] (setting [3]), the “hM4 pEC50” value was determined as 6.54 and the Emax came out at 52%. For the same compound, the EC50 in data set [1] (setting [4]) came to 0.29 µM.

Consider `Cc1nc(C)c2c(n1)sc1c(NCc3ccc(C(C)(C)O)cc3)ncc(Cl)c12` [26a], for which, in data set [1] (setting [3]), the “hM4 pEC50” value worked out at 5.48 and the Emax was determined as 92%.

On to `Cc1nc(C)c2c(n1)sc1c(NCc3ccc(C(C)(C)O)cc3)ncc(C3CC3)c12` [compound 27], for which the EC50 in data set [1] (setting [5]) was more than 31.6 µM.

Take `Cc1nc(C)c2c(n1)sc1c(NCc3ccc(C(C)(C)O)cc3)ncnc12` [14j]: in data set [1] (setting [3]), the “hM4 pEC50” value is 5.90 and the Emax was 70%. Further, the EC50 in data set [1] (setting [4]) is 1.3 µM. The EC50 in data set [1] (in μM, read-out: hM4 EC50) is more than 1 µM.

Take `Cc1nc(CC(C)C)nc2sc3c(NCc4ccc(C(C)(C)O)cc4)nccc3c12` [22n]: the Emax in data set [1] (setting [3]) stood at 66%. For the same compound, in data set [1], the “fold decrease in hM4 activity” value is more than 66 fold.

Take `Cc1nc(C)c2c(n1)sc1c(N3CCC3)ncnc12` [14d]: in data set [1] (setting [3]), the “hM4 pEC50” value stood at 5.84 and the Emax amounted to 60%. Besides, the EC50 in data set [1] (setting [4]) was found to be 1.4 µM.

Consider `Cc1nc(C)c2c(n1)sc1c(NCc3ccc(C(C)(C)O)cc3F)nccc12` [22h], for which, in data set [1] (setting [3]), the “hM4 pEC50” value is 6.08 and the Emax was 89%.

`CCc1nc(C)c2c(n1)sc1c(NCc3ccc(C(C)(C)O)cc3)nccc12` [22p]: the Emax in data set [1] (setting [3]) is 81%. For the same compound, the EC50 in data set [1] (setting [4]) was 0.77 µM. Moreover, in data set [1], the “fold decrease in hM4 activity” value is given as 4.0 fold.

Consider `Cc1nc(C)c2c(n1)sc1c(NC3CCCC3)nccc12` [22d], for which, in data set [1] (setting [3]), the “hM4 pEC50” value is listed as 6.87 and the Emax turned out to be 73%. The EC50 in data set [1] (setting [4]) is 0.13 µM.

As to `Cc1nc(C)c2c(n1)sc1c(NC3CCC3)nccc12` [22c], in data set [1] (setting [3]), the “hM4 pEC50” value is reported as 6.52 and the Emax is 95%.

In the case of `COc1ccc(CNc2ncnc3c2sc2nc(C)nc(C)c23)cc1F` [14k], in data set [1] (setting [3]), the “hM4 pEC50” value is 5.94. In addition, the Emax in data set [1] (setting [3]) stood at 65%. The EC50 in data set [1] (setting [4]) is 1.2 µM; in data set [1] (in μM, read-out: hM4 EC50), more than 1 µM.

On to `CCN(CC)c1nccc2c1sc1nc(C)nc(C)c12` [22a], for which the Emax in data set [1] (setting [3]) was found to be 38%.

On to `Cc1nc(C)c2c(n1)sc1c(N3CCOCC3)ncnc12` [14b], for which the Emax in data set [1] (setting [3]) is 39%. Moreover, the EC50 in data set [1] (setting [4]) is 5.6 µM; in data set [1] (setting [5]), 5.5 µM.

In the case of `Cc1nc(C)c2c(n1)sc1c(NCc3ccc(C(C)(C)O)cc3)ncc(C#N)c12` [compound 28], the Emax in data set [1] (setting [3]) came to 62%. In data set [1] (setting [4]), the EC50 amounted to 0.96 µM.

Regarding `Cc1nc(C)c2c(n1)sc1c(NCc3ccc(C(C)(C)O)c(F)c3)nccc12` [22i], in data set [1] (setting [3]), the Emax is 86%. Also, in data set [1] (setting [4]), the EC50 came to 0.28 µM. Moreover, the fraction unbound at 6 h, 1 µM in data set [2] is less than 0.01.

`Cc1nc(C)c2c(n1)sc1c(NC3CCCC3)ncnc12` [14f]: in data set [1] (setting [3]), the “hM4 pEC50” value came out at 6.25 and the Emax was found to be 56%. The EC50 in data set [1] (setting [4]) came out at 0.56 µM.

Regarding `Cc1nc(C)c2c(n1)sc1c(N3CCCCC3)ncnc12` [14a], the EC50 in data set [1] (setting [4]) is more than 30 µM; in data set [1] (setting [5]), more than 31.6 µM.

In the case of `Cc1nc(C)c2c(n1)sc1c(N3CCC(F)(F)C3)ncnc12` [14e], in data set [1], the “fold loss in hM4 potency vs comparator” value is 2.2 fold. For the same compound, in data set [1] (setting [3]), the “hM4 pEC50” value was 6.20 and the Emax worked out at 77%. In data set [1] (setting [4]), the EC50 was 0.64 µM.

For the compound `Cc1nc(C2CC2)nc2sc3c(NCc4ccc(C(C)(C)O)cc4)nccc3c12` [22o], in data set [1] (setting [3]), the “hM4 pEC50” value was found to be 5.86 and the Emax is 97%. Besides, the EC50 in data set [1] (setting [4]) stood at 1.4 µM. The “fold decrease in hM4 activity” value in data set [1] came out at 9.3 fold.
